Values quoted from earlier work as cited in patent US20180271949A1, “THERAPEUTIC TREATMENT FOR NEUROTROPHIC KERATOPATHY” (priority 2017, published 2018).

Legend:
[1] = test system: corneal epithelium wound healing; settings: with substance-P; several pre-clinical studies; Nishida 2009
[2] = test system: decubitus ulcers; settings: topical; Van Ort 1976
[3] = test system: cultured sheets of corneal epithelial cells; settings: Shanley 2004
[4] = test system: sub-basal plexus corneal nerves; settings: topical; diabetic mice; Chen 2013
[5] = test system: corneal abrasions; settings: topical, diabetic rats
[6] = test system: corneal ulcers; settings: systemic administration; humans; Aynsley 1945
[7] = test system: experimentally-induced superficial skin wounds; settings: topical; diabetic and non-diabetic individuals; Greenway 1999

## IGF-1: Insulin-like growth factor-1, modulator of corneal wound healing
[1]
  promotion of corneal epithelium wound healing: act synergistically with substance-P

## insulin: insulin, topical, systemic or added in vitro, as used in cited literature studies
[2]
  healing of decubitus ulcers: improve healing
[3]
  cell migration and closure of artificial wounds: promoted cell migration and closure of artificial wounds
[4]
  loss of sub-basal plexus corneal nerves: slow the loss
[5]; Zagon 2007
  corneal sensation: improves corneal sensation
[5]; Zagon 2007, Klocek 2009
  wound healing after corneal abrasions: improves wound healing
[6]
  healing of corneal ulcers: improved healing
[7]
  healing of experimentally-induced superficial skin wounds: improve healing
